Assay [1] relates to histone deacetylase (HDAC), nuclear extract of Hela cells. As to the kind of experiment: Deacetylase activity on nuclear extract of HeLa cells (Fluor de Lys kit). In kind it is biochemical, human. The following applies: percent inhibition relative to control without inhibitor, compound at 0.1 μM. How it is done: (§1) The activity of the compounds as histone deacetylase (HDAC) inhibitors was measured using an in vitro acetylation assay. The compounds were then evaluated as inhibitors of proliferation of human tumor cell cultures.
Deacetylase Activity on Nuclear Extract of Hela Cells (Human Cervical Cancer Cell)
The assay (Fluor de Lys™ kit, BioMol) is divided into two steps: in the first step the substrate which comprises an acetylated lysine residue is reacted with the nuclear extract (HeLa) containing the enzymatic activity in the presence and absence of inhibitors. In the second step a fluorogenic reagent is added which highlights the deacetylated residues. A reduction in fluorescence is obtained where there has been inhibition of the deacetylase activity. The result is finally expressed as percent inhibition relative to the control without inhibitor at a concentration of 0.1 μM.

In assay [2] the test system is Human colon carcinoma cells HCT-116. As to the kind of experiment: Cytotoxic activity on culture of human colon carcinoma cells HCT-116 (Alamar Blue). Format: cell-based. The following applies: HCT-116 cells, 72 hours after addition of compounds, Alamar Blue viability. How it is done:
as §1
24 hours after seeding, the compounds at different concentrations are added. […] 72 hours after addition of the compounds, cell viability is measured by means of the dye Alamar Blue.
For orientation: Alamar Blue is a resazurin reagent that responds to reducing activity.

Here are results for 32 molecules from patent US20080207694A1, “Hydroxamates as Histone Deacetylase Inhibitors and Pharmaceutical Formulations Containing Them” (priority 2005, published 2008).

Each structure is given as a SMILES string.

On to `O=C(CCCC1CCN(C(=O)[C@H](CCO)NC(=O)c2cc3ccccc3s2)CC1)NO` [Ex 113, Benzo[b]thiophene-2-carboxylic acid{3-hydroxy-1-(S)-[4-(3-hydroxycarbamoyl-propyl)-piperidine-1-carbonyl]-propyl}-amide], for which, in assay [1], the “% inhib. 0.1 μM” value is 61%. Besides, the IC50 in assay [2] was 270 nM.

Take `O=C(CCCC1CCN(C(=O)[C@H](CO)NC(=O)c2ccc3sccc3c2)CC1)NO` [Ex 114, Benzo[b]thiophene-5-carboxylic acid{2-[4-(3-hydroxycarbamoyl-propyl)-piperidin-1-yl]-1-(S)-hydroxymethyl-2-oxo-ethyl}-amide]: the “% inhib. 0.1 μM” value in assay [1] was 61%. The molecule also returned an IC50 in assay [2] of 340 nM.

Take `NC[C@@H](NC(=O)c1cc2ccccc2s1)C(=O)N1CCC(CCCC(=O)NO)CC1` [Ex 115, 2-oxo-ethyl}-amideBenzo[b]thiophene-2-carboxylic acid{1-(R)-aminomethyl-2-[4-(3-hydroxycarbamoyl-propyl)-piperidin-1-yl]-]: the “% inhib. 0.1 μM” value in assay [1] is 62%. In assay [2], 900 nM corresponded to half-maximal inhibition (IC50).

Regarding `O=C(CCCC1CCN(C(=O)[C@H](CO)NC(=O)c2nccc3ccccc23)CC1)NO` [Ex 122, Isoquinoline-1-carboxylic acid {2-[4-(3-hydroxycarbamoyl-propyl)-piperidin-1-yl]-1-(S)-hydroxymethyl-2-oxo-ethyl}-amide], the “% inhib. 0.1 μM” value in assay [1] was determined as 42%. In assay [2] (Homo sapiens, HCT-116, 72 h), this molecule had an IC50 of 420 nM.

With `Cc1ccc(NC(=O)N2CCC(CCCC(=O)NO)CC2)c(N)c1` [Ex 126, 4-(3-Hydroxycarbamoyl-propyl)-piperidine-1-carboxylic acid (2-amino-4-methyl-phenyl)-amide], the “% inhib. 0.1 μM” value in assay [1] worked out at 63%. Further, the IC50 in assay [2] (Homo sapiens, HCT-116, 72 h) is 400 nM.

Take `CCCOc1ccc(NC(=O)N2CCC(CCCC(=O)NO)CC2)cc1` [Ex 137, 4-(3-Hydroxycarbamoyl-propyl)-piperidine-1-carboxylic acid (4-propoxy-phenyl)-amide]: the “% inhib. 0.1 μM” value in assay [1] was found to be 68%. Further, it took 150 nM to reach half-maximal inhibition in assay [2] (Homo sapiens, HCT-116, 72 h) (IC50).

`CC(C)Oc1ccc(NC(=O)N2CCC(CCCC(=O)NO)CC2)cc1` [Ex 139, 4-(3-Hydroxycarbamoyl-propyl)-piperidine-1-carboxylic acid (4-isopropoxy-phenyl)-amide]: in assay [1], the “% inhib. 0.1 μM” value was 56%. In assay [2] (Homo sapiens, HCT-116, 72 h), the midpoint of inhibition, the IC50, lay at 400 nM.

`N[C@@H](CC(=O)N1CCC(CCCC(=O)NO)CC1)Cc1ccc2ccccc2c1` [Ex 144, 4-[1-(3-(R)-Amino-4-naphthalen-2-yl-butyryl)-piperidin-4-yl]-N-hydroxy-butyramide]: the “% inhib. 0.1 μM” value in assay [1] amounted to 69%. In assay [2] (Homo sapiens, HCT-116, 72 h), this molecule came in with an IC50 of 240 nM.

With `N[C@H](CC(=O)N1CCC(CCCC(=O)NO)CC1)Cc1csc2ccccc12` [Ex 146, 4-[1-(3-(S)-Amino-4-benzo[b]thiophen-3-yl-butyryl)-piperidin-4-yl]-N-hydroxy-butyramide], in assay [1], the “% inhib. 0.1 μM” value was 68%. In assay [2] (Homo sapiens, HCT-116, 72 h), the concentration for half-maximal inhibition (IC50) came out at 60 nM.

Turning to `N[C@@H](CC(=O)N1CCC(CCCC(=O)NO)CC1)c1ccc2ccccc2c1` [Ex 149, 4-[1-(3-(S)-Amino-3-naphthalen-2-yl-propionyl)-piperidin-4-yl]-N-hydroxy-butyramide], the “% inhib. 0.1 μM” value in assay [1] is 62%. In assay [2], this molecule yielded a half-maximal inhibitory concentration (IC50) of 130 nM.

`O=C(CCCC1CCN(C(=O)Nc2cccc(-c3ccccc3)c2)CC1)NO` [Ex 150, 4-(3-Hydroxycarbamoyl-propyl)-piperidine-1-carboxylic acid biphenyl-3-ylamide]: the “% inhib. 0.1 μM” value in assay [1] was 57%. The molecule also displayed a 50% inhibitory concentration (IC50) in assay [2] (Homo sapiens, HCT-116, 72 h) of 180 nM.

Consider `O=C(CCCC1CCN(C(=O)Nc2ccc(-c3ccccn3)cc2)CC1)NO` [Ex 151, 4-(3-Hydroxycarbamoyl-propyl)-piperidine-1-carboxylic acid (4-pyridin-2-yl-phenyl)-amide], for which the “% inhib. 0.1 μM” value in assay [1] was determined as 50%. The molecule further came in with an IC50 in assay [2] (Homo sapiens, HCT-116, 72 h) of 100 nM.

Take `N[C@H](CC(=O)N1CCC(CCCC(=O)NO)CC1)Cc1cccc2ccccc12` [Ex 154, 4-[1-(3-(S)-Amino-4-naphthalen-1-yl-butyryl)-piperidin-4-yl]-N-hydroxy-butyramide]: the “% inhib. 0.1 μM” value in assay [1] is 82%. Further, the half-inhibitory concentration (IC50) in assay [2] (Homo sapiens, HCT-116, 72 h) amounted to 530 nM.

For the molecule `O=C(CCCC1CCN(C(=O)NCc2csc3ccccc23)CC1)NO` [Ex 157, N-(benzo[b]thiophen-3-ylmethyl)-4-(4-(hydroxyamino)-4-oxobutyl)piperidine-1-carboxamide], the “% inhib. 0.1 μM” value in assay [1] amounted to 68%. The same molecule gave an IC50 in assay [2] (Homo sapiens, HCT-116, 72 h) of 600 nM.

Consider `N[C@@H](CC(=O)N1CCC(CCCC(=O)NO)CC1)c1cccc2ccccc12` [Ex 158, 4-[1-(3-(S)-Amino-3-naphthalen-1-yl-propionyl)-piperidin-4-yl]-N-hydroxy-butyramide], for which the “% inhib. 0.1 μM” value in assay [1] is on record as 60%. This molecule came in with a half-inhibitory concentration (IC50) in assay [2] (Homo sapiens, HCT-116, 72 h) of 900 nM.

Consider `N[C@H](CC(=O)N1CCC(CCCC(=O)NO)CC1)c1cccc2ccccc12` [Ex 159, 4-[1-(3-(R)-Amino-3-naphthalen-1-yl-propionyl)-piperidin-4-yl]-N-hydroxy-butyramide], for which, in assay [1], the “% inhib. 0.1 μM” value is reported as 79%. The molecule further returned an IC50 in assay [2] (Homo sapiens, HCT-116, 72 h) of 200 nM.

Consider `COc1c(NC(=O)N2CCC(CCCC(=O)NO)CC2)ccc2ccccc12` [Ex 160], for which the “% inhib. 0.1 μM” value in assay [1] is reported as 67%. Besides, in assay [2], the 50% inhibitory concentration (IC50) is 200 nM.

Consider `COc1cc2ccccc2cc1NC(=O)N1CCC(CCCC(=O)NO)CC1` [Ex 161], for which the “% inhib. 0.1 μM” value in assay [1] amounted to 76%. In assay [2], this molecule yielded a 50% inhibitory concentration (IC50) of 30 nM.

On to `O=C(CCCC1CCN(C(=O)CCNCc2ccccc2)CC1)NO` [Ex 164, 4-[1-(3-Benzylamino-propionyl)-piperidin-4-yl]-N-hydroxy-butyramide], for which the “% inhib. 0.1 μM” value in assay [1] is listed as 51%. Further, in assay [2] (Homo sapiens, HCT-116, 72 h), the midpoint of inhibition, the IC50, lay at 600 nM.

For the molecule `O=C(CCCC1CCN(C(=O)Nc2ccc(-c3cccc(F)c3)cc2)CC1)NO` [Ex 165, 4-(3-Hydroxycarbamoyl-propyl)-piperidine-1-carboxylic acid (3′-fluoro-biphenyl-4-yl)-amide], the “% inhib. 0.1 μM” value in assay [1] is recorded as 64%. Inhibition in assay [2] (Homo sapiens, HCT-116, 72 h) was half-maximal at 700 nM (IC50).

With `N[C@@H](CC(=O)N1CCC(CCCC(=O)NO)CC1)c1cccc(Cl)c1` [Ex 168, 4-{1-[3-(S)-Amino-3-(3-chloro-phenyl)-propionyl]-piperidin-4-yl}-N-hydroxy-butyramide], the “% inhib. 0.1 μM” value in assay [1] was found to be 55%. For the same molecule, the IC50 in assay [2] stood at 90 nM.

Regarding `O=C(CCCC1CCN(C(=O)NCCCc2c[nH]c3ccccc23)CC1)NO` [Ex 170, N-(3-(1H-indol-3-yl)propyl)-4-(4-(hydroxyamino)-4-oxobutyl)piperidine-1-carboxamide], the “% inhib. 0.1 μM” value in assay [1] is listed as 51%. Further, half-maximal inhibition in assay [2] (Homo sapiens, HCT-116, 72 h) (IC50) required 200 nM.

`N[C@@H](CC(=O)N1CCC(CCCC(=O)NO)CC1)c1cccc(Cl)c1` [Ex 171, 4-{1-[3-(S)-Amino-3-(3-chloro-phenyl)-propionyl]-piperidin-4-yl}-N-hydroxy-butyramide]: in assay [1], the “% inhib. 0.1 μM” value is on record as 45%. Besides, in assay [2], the half-inhibitory concentration (IC50) turned out to be 400 nM.

Turning to `N[C@@H](CC(=O)N1CCC(CCCC(=O)NO)CC1)c1cccc(F)c1` [Ex 175, 4-{1-[3-(S)-Amino-3-(3-fluoro-phenyl)-propionyl]-piperidin-4-yl}-N-hydroxy-butyramide], the “% inhib. 0.1 μM” value in assay [1] is 70%. In addition, half-maximal inhibition in assay [2] (Homo sapiens, HCT-116, 72 h) (IC50) was put at 600 nM.

With `O=C(CCCC1CCN(C(=O)Nc2ccc(-c3csnn3)cc2)CC1)NO` [Ex 178, 4-(3-Hydroxycarbamoyl-propyl)-piperidine-1-carboxylic acid (4-[1,2,3]thiadiazol-4-yl-phenyl)-amide], the “% inhib. 0.1 μM” value in assay [1] stood at 45%. In assay [2] (Homo sapiens, HCT-116, 72 h), this molecule returned a concentration for half-maximal inhibition (IC50) of 300 nM.

With `Cc1cc(C)n(-c2ccc(NC(=O)N3CCC(CCCC(=O)NO)CC3)cc2)n1` [Ex 179, 4-(3-Hydroxycarbamoyl-propyl)-piperidine-1-carboxylic acid [4-(3,5-dimethyl-pyrazol-1-yl)-phenyl]-amide], the “% inhib. 0.1 μM” value in assay [1] stood at 70%. The midpoint of inhibition in assay [2] (Homo sapiens, HCT-116, 72 h), the IC50, lay at 500 nM.

Regarding `Nc1ccc2cc(NC(=O)N3CCC(CCCC(=O)NO)CC3)ccc2c1` [Ex 181, N-(6-aminonaphthalen-2-yl)-4-(4-(hydroxyamino)-4-oxobutyl)piperidine-1-carboxamide], the “% inhib. 0.1 μM” value in assay [1] stood at 64%. The molecule also returned an IC50 in assay [2] (Homo sapiens, HCT-116, 72 h) of 470 nM.

Consider `O=C(CCCC1CCN(C(=O)CCNc2cccc3ccccc23)CC1)NO` [Ex 186, 4-[1-(3-(1)Naphtylamino-propionyl)-piperidin-4-yl]-N-hydroxy-butyramide], for which the “% inhib. 0.1 μM” value in assay [1] is recorded as 81%. In assay [2], this molecule registered a half-maximal inhibitory concentration (IC50) of 360 nM.

In the case of `O=C(CCCC1CCN(C(=O)NCc2csc3ccc(Cl)cc23)CC1)NO` [Ex 188, N-(5-Chloro-benzo[b]thiophen-3-ylmethyl)-4-(4-(hydroxyamino)-4-oxobutyl)piperidine-1-carboxamide], in assay [1], the “% inhib. 0.1 μM” value is listed as 50%. The molecule also yielded an IC50 in assay [2] (Homo sapiens, HCT-116, 72 h) of 210 nM.

For `O=C(CCCC1CCN(C(=O)NCc2ccc(-c3ccsc3)cc2)CC1)NO` [Ex 190, N-(4-(thiophen-3-yl)benzyl)-4-(4-(hydroxyamino)-4-oxobutyl)piperidine-1-carboxamide], the “% inhib. 0.1 μM” value in assay [1] is given as 69%. Besides, in assay [2] (Homo sapiens, HCT-116, 72 h), the IC50 came to 480 nM.

For the molecule `O=C(CCCC1CCCN(C(=O)Nc2ccccc2)C1)NO` (stereo not shown) [Ex 192, 3-(4-(hydroxyamino)-4-oxobutyl)-N-phenylpiperidine-1-carboxamide], the “% inhib. 0.1 μM” value in assay [1] turned out to be 68%. The molecule also gave a half-inhibitory concentration (IC50) in assay [2] (Homo sapiens, HCT-116, 72 h) of 600 nM.

With `N[C@@H](CC(=O)N1CCC(CCCC(=O)NO)CC1)C(=O)NCc1ccccc1` [Ex 193, 2-(s)-Amino-N-benzyl-4-[4-(3-hydroxycarbamoyl-propyl)-piperidin-1-yl]-4-oxo-butyramide], the “% inhib. 0.1 μM” value in assay [1] was 50%. The IC50 in assay [2] (Homo sapiens, HCT-116, 72 h) was 900 nM.

As usually defined, the IC50 is the concentration needed to halve the response being measured. Low values mean greater potency in that assay, high ones weaker potency in that assay.
